Each structure is given as a SMILES string.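 48-hour exposure; five concentrations; linearly interpolated endpoints. The concentration for 50% growth inhibition is given as GI50. TGI: concentration producing complete growth inhibition.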

Test systems include NCI/ADR-RES ovarian; HS 578T breast; TK-10 renal; SNB-19 CNS; SK-MEL-5 melanoma; RXF 393 renal; 786-0 renal; CCRF-CEM leukemia; BT-549 breast; SNB-75 CNS.
What all share (test): DTP human tumour cell line panel, 48 h

Broadly, the TGI is the concentration giving total growth inhibition. High values mean lower sensitivity of the cells, low ones greater sensitivity of the cells. On to `C#CC(O)(c1nc2ccccc2s1)c1nc2ccccc2s1`, for which the TGI was 75.6 µM with NCI/ADR-RES ovarian; more than 100 µM with HS 578T breast; more than 100 µM in the test on TK-10 renal; more than 100 µM with SNB-19 CNS; 30.7 µM in the test with SK-MEL-5 melanoma; 89.7 µM with RXF 393 renal. Further, the total growth inhibition concentration (TGI) in the test with 786-0 renal turned out to be 38.9 µM; in the test on CCRF-CEM leukemia, 79 µM; in the test with BT-549 breast, 57.3 µM.
On to `CC1=NN(c2cccc(Cl)c2)C2(C1=Cc1ccc(O)cc1)C(Cl)C(=O)N2c1nc2ccccc2s1` (centres undefined), for which the total growth inhibition concentration (TGI) in the test on NCI/ADR-RES ovarian was 59.7 µM; in the test on HS 578T breast, more than 100 µM; with TK-10 renal, more than 100 µM; in the test on SK-MEL-5 melanoma, 39.8 µM; in the test on RXF 393 renal, 47.9 µM; in the test with 786-0 renal, 80.6 µM. This molecule displayed a total growth inhibition concentration (TGI) with CCRF-CEM leukemia of more than 100 µM.
Regarding `N#CC1(C#N)C(C#N)(C#N)C1(C#N)C(N)=O`, the total growth inhibition concentration (TGI) with NCI/ADR-RES ovarian, in the test on HS 578T breast, with TK-10 renal, in the test on SNB-19 CNS, in the test with SK-MEL-5 melanoma and with RXF 393 renal was more than 100 µM each time. For the same molecule, the concentration for total growth inhibition (TGI) in the test with 786-0 renal, in the test on CCRF-CEM leukemia and in the test on BT-549 breast was more than 100 µM each time.
`CC1C(NNC(N)=O)Oc2cc3c(cc2C1c1ccccc1O)OCO3` (centres undefined): the TGI is 86.3 µM in the test on SNB-75 CNS; more than 100 µM in the test on HS 578T breast; more than 100 µM in the test on TK-10 renal; more than 100 µM in the test with SNB-19 CNS; more than 100 µM with SK-MEL-5 melanoma; 84.6 µM in the test with RXF 393 renal. For the same molecule, the total growth inhibition concentration (TGI) in the test with CCRF-CEM leukemia was 54.5 µM; with BT-549 breast, more than 100 µM.
On to `COc1ccc(-n2c(=O)c3[nH]c(=S)[nH]c3n(-c3ccc(OC)cc3)c2=S)cc1`, for which the concentration for total growth inhibition (TGI) in the test on SNB-75 CNS, with NCI/ADR-RES ovarian, in the test with TK-10 renal, in the test on SK-MEL-5 melanoma, in the test with RXF 393 renal and in the test on 786-0 renal was more than 100 µM throughout. Further, the TGI with CCRF-CEM leukemia and in the test on BT-549 breast was more than 100 µM each time.
On to `CC(C(=O)OCc1ccccc1)N(Cc1ccccc1)Cc1ccccc1` (centres undefined), for which the total growth inhibition concentration (TGI) is more than 100 µM in the test on SNB-75 CNS; more than 100 µM in the test with TK-10 renal; more than 100 µM in the test with SNB-19 CNS; more than 100 µM in the test with SK-MEL-5 melanoma; 88 µM with RXF 393 renal; more than 100 µM in the test with CCRF-CEM leukemia.
As to `COc1ccccc1OCC(COC(=O)Nc1ccccc1)OC(=O)Nc1ccccc1` (centres undefined), the TGI with SNB-75 CNS is 45.6 µM; in the test with TK-10 renal, more than 100 µM; in the test with SNB-19 CNS, more than 100 µM; in the test with SK-MEL-5 melanoma, more than 100 µM; with RXF 393 renal, 46.8 µM; in the test with CCRF-CEM leukemia, more than 100 µM.
As to `Cc1ccc(S(=O)(=O)N2C[C@@H]3CC[C@]4(CO[Si](C)(C)C(C)(C)C)N[C@@H](c5ccccc5)[C@H]2[C@H]34)cc1`, the TGI in the test with NCI/ADR-RES ovarian is more than 100 µM; in the test with HS 578T breast it was more than 100 µM; in the test on TK-10 renal it was more than 100 µM; with SNB-19 CNS, more than 100 µM; in the test on SK-MEL-5 melanoma it was 30.6 µM; with RXF 393 renal, 53.1 µM. In addition, the values for the TGI in the test on 786-0 renal, in the test with CCRF-CEM leukemia and in the test with BT-549 breast were more than 100 µM, more than 100 µM and 87.8 µM, respectively.
As for `CCOC(=O)c1ccc(Nc2nc3ccccc3nc2-c2cccs2)cc1`, the TGI was more than 100 µM with SNB-75 CNS; more than 100 µM with NCI/ADR-RES ovarian; more than 100 µM in the test on HS 578T breast; 58.5 µM in the test on TK-10 renal; more than 100 µM in the test on SNB-19 CNS; more than 100 µM in the test on SK-MEL-5 melanoma. For the same molecule, the TGI in the test with RXF 393 renal, in the test on 786-0 renal and with CCRF-CEM leukemia was more than 100 µM in each case.
As for `COc1ccc(C2C3=C(N=C4SC(C(C)=O)=C(C)N42)c2ccccc2CC3)cc1` (centres undefined), the total growth inhibition concentration (TGI) in the test on SNB-75 CNS, in the test with HS 578T breast, in the test with SNB-19 CNS, in the test with SK-MEL-5 melanoma, in the test on RXF 393 renal and in the test with 786-0 renal was more than 100 µM each time. For the same molecule, the TGI with CCRF-CEM leukemia and in the test with BT-549 breast was more than 100 µM throughout.
For `O=c1[nH]nc(-c2ccccc2)n1/N=C/c1ccc([N+](=O)[O-])o1`, the total growth inhibition concentration (TGI) in the test on SNB-75 CNS was more than 70.2 µM; in the test on NCI/ADR-RES ovarian it was more than 26 µM; with HS 578T breast, more than 100 µM; in the test on TK-10 renal it was more than 100 µM; in the test on SNB-19 CNS, more than 47.2 µM; with SK-MEL-5 melanoma it was 28.9 µM. In addition, the figures for the TGI in the test with RXF 393 renal, with 786-0 renal and with CCRF-CEM leukemia were 2.63 µM, more than 31.7 µM and 19.6 µM, respectively.
Broadly, the GI50 is the concentration that inhibits growth by half. Regarding `O=c1c2cc(C(F)(F)F)ccc2sc2c(NCCCNCCO)nc3ccccc3c12`, the GI50 with SNB-75 CNS was 1480 nM; in the test on SNB-19 CNS, 1650 nM; with SK-MEL-5 melanoma, 1620 nM; in the test with RXF 393 renal it was 1400 nM; in the test on BT-549 breast it was 5.28 µM. The TGI with SNB-75 CNS is 2.87 µM; in the test with SNB-19 CNS, 3.1 µM; in the test on SK-MEL-5 melanoma, 3.01 µM; in the test with RXF 393 renal, 2.82 µM; in the test with BT-549 breast, 24.9 µM.
For the molecule `COC(=O)[C@H](Cc1c[nH]c2ccccc12)NP(=O)(OCCC#N)OCC1OC(n2cc(C)c(=O)[nH]c2=O)CC1N=[N+]=[N-]` (some centres undefined), the TGI in the test with SNB-75 CNS, in the test on NCI/ADR-RES ovarian, with TK-10 renal, in the test on SNB-19 CNS, in the test with SK-MEL-5 melanoma and in the test on RXF 393 renal was more than 100 µM throughout. The total growth inhibition concentration (TGI) in the test on 786-0 renal, with CCRF-CEM leukemia and in the test on BT-549 breast was more than 100 µM in each case.
With `O=C(COc1ccc(OCC(=O)N2C(=O)CC(=O)N(c3ccc(Cl)cc3)C2=S)cc1)N1C(=O)CC(=O)N(c2ccc(Cl)cc2)C1=S`, the TGI in the test with SNB-75 CNS was more than 100 µM; with NCI/ADR-RES ovarian it was 93.4 µM; with TK-10 renal it was more than 100 µM; in the test on SNB-19 CNS, more than 100 µM; in the test with SK-MEL-5 melanoma, more than 100 µM; with RXF 393 renal, 83.1 µM. Also, the TGI in the test on 786-0 renal came to 80.1 µM; in the test with BT-549 breast it was 87.8 µM.
`COc1ccc(C#Cn2nnc3ccccc32)cc1`: the concentration for total growth inhibition (TGI) with NCI/ADR-RES ovarian, with HS 578T breast, in the test with TK-10 renal, in the test with SNB-19 CNS, in the test on SK-MEL-5 melanoma and in the test on RXF 393 renal was more than 100 µM each time. Besides, the TGI in the test on 786-0 renal and in the test on BT-549 breast was more than 100 µM each time.
Consider `Cc1cc2[nH]c3c(C#N)c(-c4ccccc4)c(N=Nc4ccc(F)cc4)c(=O)n3c2cc1C`, for which the TGI in the test on SNB-75 CNS, with NCI/ADR-RES ovarian, in the test on TK-10 renal, in the test on SNB-19 CNS, in the test on SK-MEL-5 melanoma and in the test on RXF 393 renal was more than 100 µM in each case. Also, the TGI in the test with 786-0 renal, with CCRF-CEM leukemia and in the test on BT-549 breast was more than 100 µM in each case.
Take `C#CC[C@@]12CC(=O)C[C@@H]1CCC1(C2)OCCO1` (tested in a mixture with another compound): the TGI in the test with SNB-75 CNS, in the test on NCI/ADR-RES ovarian, with SNB-19 CNS, in the test with SK-MEL-5 melanoma, with RXF 393 renal and with CCRF-CEM leukemia was more than 100 µM in each case.
Consider `O=C(NNC(=S)Nc1ccccc1)c1nsc2ccccc12`, for which the TGI in the test with SNB-75 CNS was 65.6 µM; in the test on TK-10 renal it was more than 100 µM; in the test on SNB-19 CNS it was more than 100 µM; in the test with SK-MEL-5 melanoma, more than 100 µM; in the test on RXF 393 renal, more than 100 µM; in the test with CCRF-CEM leukemia, 49 µM.
On to `O=P1(N2CCOCC2)OCCO1`, for which the TGI in the test on NCI/ADR-RES ovarian, in the test with HS 578T breast, with SNB-19 CNS, in the test with SK-MEL-5 melanoma, with RXF 393 renal and with 786-0 renal was more than 100 µM throughout. In the test on CCRF-CEM leukemia, the concentration for total growth inhibition (TGI) is more than 100 µM.
For `O=C(O)CCC(=O)OCN1C(=O)C2C3C=CC(C2C1=O)C1C2C(=O)N(COC(=O)CCC(=O)O)C(=O)C2C31` (centres undefined), the TGI in the test on SNB-75 CNS, in the test on TK-10 renal, with SNB-19 CNS, in the test on SK-MEL-5 melanoma, with RXF 393 renal and with 786-0 renal was more than 100 µM in each case. In the test with CCRF-CEM leukemia, the TGI is more than 81.1 µM.
On to `COC(C/C(=C/CO[Si](C(C)C)(C(C)C)C(C)C)C(=O)N(COCC[Si](C)(C)C)c1ccccc1I)OC`, for which the total growth inhibition concentration (TGI) with SNB-75 CNS, in the test on NCI/ADR-RES ovarian, with HS 578T breast, in the test with TK-10 renal, in the test on SNB-19 CNS and in the test with SK-MEL-5 melanoma was more than 100 µM throughout. Further, the TGI with 786-0 renal and in the test on CCRF-CEM leukemia was more than 100 µM each time.
Turning to `Cc1c(CNc2ccc(C(=O)NC(CCCNC(=O)c3ccccc3C(=O)O)C(=O)O)cc2)cnc2nc(N)nc(N)c12` (centres undefined), the TGI in the test with NCI/ADR-RES ovarian was more than 100 µM; in the test with SNB-19 CNS, more than 100 µM; in the test on RXF 393 renal it was 2.15 µM; in the test with 786-0 renal, more than 100 µM; in the test on BT-549 breast, 6.62 µM. Besides, the GI50 is more than 100 µM in the test with TK-10 renal, 279 nM with RXF 393 renal and more than 100 µM in the test on CCRF-CEM leukemia.
Take `O=C(CCN1CCOCC1)/C(=C/c1ccccc1)c1ccccc1`: the TGI in the test on SNB-75 CNS was determined as 21.8 µM; in the test with NCI/ADR-RES ovarian, 17.5 µM; in the test on SNB-19 CNS, 23.4 µM; in the test with SK-MEL-5 melanoma, 21.5 µM; in the test with RXF 393 renal it was 3.4 µM.

(Values after PubChem BioAssay (NCI).)
